Source: PubChem BioAssay AID652053 (Broad Institute, 2013)

System: Huh7 psiCHECK-miR122 Renilla luciferase reporter, 48 h
Experiment: suppression of miR-122 activity, Renilla luciferase sensor – cell-based, Huh7 psiCHECK-miR122, cherry-pick, dose response (AID 652053)

Cc1c(C)c(C)c(S(=O)(=O)NCCc2ccccn2)c(C)c1C and Cc1ccc(C(=O)NCc2ccncc2)cc1S(=O)(=O)Nc1cccc(C)c1C are within 1.5-fold of each other in AC40: 1.69 µM for the first, 1.93 µM for the second.

Compared with C[C@H](CO)N1C[C@H](C)[C@@H](CN(C)Cc2ccc3c(c2)OCO3)Oc2c(NC(=O)C3CCCCC3)cccc2C1=O, C[C@H]1CN([C@@H](C)CO)C(=O)c2cccc(NC(=O)C3CCOCC3)c2O[C@@H]1CN(C)Cc1ccc2c(c1)OCO2 is 3.4-fold higher in AC40: 5.43 µM for the first, 18.2 µM for the second.

First: COc1cc(S(=O)(=O)N(CCc2ccccc2)Cc2cccs2)ccc1-n1cnnn1
Second: COc1ccc(OC)c(S(=O)(=O)NCc2ccccc2)c1
The AC40 of the first is 1.7-fold higher: 1.33 µM for the first, 0.781 µM for the second.

Going from COc1ccccc1NS(=O)(=O)c1cc(NC(=O)Nc2ccc(Cl)cc2Cl)ccc1N1CCCCC1 to COc1ccccc1NS(=O)(=O)c1cc(NC(=O)c2cccs2)ccc1N1CCOCC1, the AC40 falls from 1.49 µM to 0.895 µM (1.7-fold).

CCc1nnc(NC(=O)c2ccc(NS(=O)(=O)c3ccccc3)cc2)s1 and O=C(Nc1cccc(S(=O)(=O)Nc2ccc(Cl)cc2)c1)c1ccccn1 are within 1.5-fold of each other in AC40: 2.68 µM for the first, 1.8 µM for the second.

Compared with COc1ccc(NS(=O)(=O)c2cc(NC(=O)c3cnccn3)ccc2N2CCCC2)cc1, COc1ccccc1NS(=O)(=O)c1cc(NC(=O)c2cccc(S(=O)(=O)N(C)C)c2)ccc1N1CCOCC1 is 4.2-fold lower in AC40: 3.27 µM for the first, 0.776 µM for the second.

Going from Cc1ccc(S(=O)(=O)NC(=NCc2ccccc2)c2ccc(F)cc2)cc1 to Cc1cc(C)cc(NS(=O)(=O)c2ccc(F)cc2)c1, the AC40 rises from 5.08 µM to 10.9 µM (2.1-fold).

First: Cc1ccc(C)c(S(=O)(=O)Nc2ccc(-n3cnnn3)cc2)c1
Second: Cc1ccc(C)c(S(=O)(=O)Nc2ccc(O)cc2)c1
The AC40 of the first is lower: under 0.26 µM for the first, 8.22 µM for the second.

Cc1ccc(O)c(NC(=O)c2cccc(S(=O)(=O)N3CCCCC3)c2)c1 and COc1ccc(S(=O)(=O)Nc2ccc(S(=O)(=O)N3CCCCC3)cc2)cc1C are within 1.5-fold of each other in AC40: 2.39 µM for the first, 2.44 µM for the second.

First: COc1ccc(NS(=O)(=O)c2ccc(NC(=S)NC(=O)C(C)C)cc2)cc1
Second: CCOC(=O)Nc1ccc(NS(=O)(=O)c2ccc(C)cc2)cc1
The AC40 of the first is 6.6-fold lower: 1.34 µM for the first, 8.82 µM for the second.

Going from Cc1ccc(C(=O)Nc2ccccc2-c2ccccc2)cc1S(=O)(=O)Nc1ccccc1 to COc1ccc(NS(=O)(=O)c2cc(C)ccc2C)cc1, the AC40 falls from 3.64 µM to 1.47 µM (2.5-fold).

Compared with Cc1cc(C(O)c2ncc(-c3ccccc3F)[nH]2)ccc1F (stereo unspecified), COc1ccc(OC)c(-c2csc(NC(=O)Cc3ccccc3F)n2)c1 is 2.4-fold higher in AC40: 3.57 µM for the first, 8.49 µM for the second.

Going from CCNS(=O)(=O)c1cc(Br)ccc1OC to CCOc1ccc(Br)cc1S(=O)(=O)NCc1ccncc1, the AC40 falls from 3.4 µM to 1.9 µM (1.8-fold).

First: C[C@@H]1CN([C@H](C)CO)C(=O)c2cccc(N(C)C)c2O[C@H]1CN(C)C(=O)Nc1ccccc1
Second: C[C@@H]1CN([C@@H](C)CO)C(=O)c2cccc(N(C)C)c2O[C@@H]1CN(C)Cc1ccc(C(=O)Nc2ccccc2N)cc1
The AC40 of the first is 2.4-fold lower: 1.33 µM for the first, 3.25 µM for the second.

Compared with COc1ccc(S(=O)(=O)Nc2cccc3c2O[C@H](CN(C)Cc2ccc(Cl)c(Cl)c2)[C@@H](C)CN([C@H](C)CO)C3=O)cc1, C[C@@H]1CN([C@H](C)CO)C(=O)c2cccc(NC(=O)Nc3ccc(F)cc3)c2O[C@H]1CN(C)Cc1ccc(C(F)(F)F)cc1 is 2.8-fold lower in AC40: 4.25 µM for the first, 1.51 µM for the second.

Going from Cc1sc2ncn(CC(=O)N(CC(=O)NC3CCCC3)Cc3cccs3)c(=O)c2c1C to Cc1cc(C(=O)Nc2cccc3c2O[C@@H](CN(C)CC2CCCCC2)[C@@H](C)CN([C@@H](C)CO)C3=O)n(C)n1, the AC40 falls from 20 µM to 5.85 µM (3.4-fold).

Cc1ccc(C)c(S(=O)(=O)Nc2cc3c4c(c2)CC(=O)N4CCC3)c1 and Cc1ccc(C)c(S(=O)(=O)NCC(c2ccc3c(c2)OCO3)N2CCOCC2)c1 (stereo unspecified) are within 1.5-fold of each other in AC40: 1.88 µM for the first, 1.81 µM for the second.

Cc1ccc(OP(=O)(Nc2cccc(C)c2)Oc2ccc(C)cc2)cc1 and Cc1ccc(C2CC(c3cccs3)=NN2S(=O)(=O)c2ccc(C)cc2)cc1 (stereo unspecified) are within 1.5-fold of each other in AC40: 6.66 µM for the first, 8.19 µM for the second.

First: C[C@H]1CN([C@@H](C)CO)C(=O)Cc2cc(N(C)C)ccc2O[C@@H]1CN(C)Cc1ccc(C(=O)Nc2ccccc2N)cc1
Second: C[C@H]1CN([C@@H](C)CO)C(=O)c2cccc(NC(=O)C3CC3)c2O[C@@H]1CN(C)Cc1ccc(C(F)(F)F)cc1
The AC40 of the first is 61-fold higher: 25.7 µM for the first, 0.42 µM for the second.

Compared with COc1ccc(NS(=O)(=O)c2ccc(OC)c(OC)c2)cc1OC, COc1ccc(OC)c(S(=O)(=O)Nc2cccc(-c3ccc4nncn4n3)c2)c1 is 2.2-fold lower in AC40: 5.37 µM for the first, 2.4 µM for the second.

First: COc1cc(S(=O)(=O)NC2CCCC2)c(OC)cc1C
Second: COc1cc(S(=O)(=O)N2CCCCCC2)c(OC)cc1Br
The AC40 of the first is 1.8-fold higher: 3.17 µM for the first, 1.74 µM for the second.

First: COc1ccc(-c2nc3ccccn3c2NC2CCCCC2)cc1SC1CCCCC1
Second: O=C(Nc1ccccc1)c1ccc(NC2CCCCC2)c(S(=O)(=O)N2CCOCC2)c1
The AC40 of the first is 1.9-fold lower: 7.13 µM for the first, 13.9 µM for the second.

Going from O=S(Cc1ccc(Cl)cc1)CC(O)(c1ccccc1)c1ccccc1 (stereo unspecified) to O=C(Nc1ccccc1)N1C[C@H]2[C@@H](c3ccccc31)[C@@H](CO)N2C(=O)c1ccccn1, the AC40 rises from 18.1 µM to 33.7 µM (1.9-fold).

First: CSc1ccc(S(=O)(=O)NC2CC3CCC2C3)cc1 (stereo unspecified)
Second: O=C(Nc1ccc(S(=O)(=O)NC2CCCCC2)cc1)c1ccc(Br)o1
The AC40 of the first is 3.4-fold higher: 5.6 µM for the first, 1.66 µM for the second.

Going from Cc1cc(C)cc(NS(=O)(=O)c2cc(Br)cnc2N)c1 to Cc1cc(S(=O)(=O)Nc2ccc3ccccc3c2)c(C)s1, the AC40 rises from 0.656 µM to 1.06 µM (1.6-fold).

O=C(CCc1ccc(S(=O)(=O)NCCc2ccccc2)cc1)NCc1ccc2c(c1)OCO2 and O=S(=O)(NCC1CCCO1)c1ccc(Oc2ccccc2)cc1 (stereo unspecified) are within 1.5-fold of each other in AC40: 8.53 µM for the first, 5.86 µM for the second.

Compared with CN1C(=O)c2cc(NC(=O)NCc3ccccc3)ccc2OC[C@@H]2O[C@H](CC(=O)NCC3CCCCC3)CC[C@@H]21, S=C(NCC1CCCCC1)Nc1ccc(Oc2ccccc2)cc1 is 41-fold higher in AC40: 0.358 µM for the first, 14.6 µM for the second.

Compared with CCOc1ccc(NS(=O)(=O)c2cc(NC(=O)C3CC3)ccc2C)cc1Br, CCOc1ccc(Br)cc1S(=O)(=O)Nc1ccc(Cl)c(S(=O)(=O)N(CC)c2ccccc2)c1 is 1.9-fold higher in AC40: 2.15 µM for the first, 4.18 µM for the second.

Going from COc1ccc(-c2c(O)c(C#N)c(-c3ccccc3)n(-c3ccc(OC)cc3)c2=O)cc1 to COc1ccccc1CN1[C@H](CO)[C@@H]2c3ccccc3N(C(=O)c3ccc(F)cc3)C[C@@H]21, the AC40 rises from 20 µM to 30 µM (1.5-fold).

First: CC(=O)Nc1ccc(S(=O)(=O)C(C#N)c2nc3ccccc3nc2NCCO)cc1 (stereo unspecified)
Second: Cc1ccc(S(=O)(=O)N(C)C[C@H]2Oc3ccc(NC(=O)Nc4ccc(C(F)(F)F)cc4)cc3C(=O)N([C@H](C)CO)C[C@H]2C)cc1
The AC40 of the first is 4.8-fold higher: 25.9 µM for the first, 5.41 µM for the second.

Compared with O=C1c2ccccc2C2=Nc3ccccc3SC(c3cccc(F)c3)C12 (stereo unspecified), O=C(c1cccc(F)c1)N1C[C@H]2[C@@H](c3ccccc31)[C@@H](CO)N2C(=O)c1ccc(F)cc1 is 7.1-fold lower in AC40: 7.63 µM for the first, 1.08 µM for the second.

Going from CC(NC(=S)Nc1ccc(Cl)cc1Cl)C(c1cccs1)N1CCCC1 (stereo unspecified) to Fc1cccc(NC(=S)NC2CCCCCCC2)c1, the AC40 falls from 23.8 µM to 4.22 µM (5.6-fold).

Going from CCOC(=O)c1cc(S(=O)(=O)NC2CCCCC2)cn1C to CS(=O)(=O)N(CC(=O)Nc1ccc(Cl)c(Cl)c1)C1CCCCC1, the AC40 rises from 5.77 µM to 13.5 µM (2.3-fold).

First: Cc1cc(C(=O)Nc2cccc3c2O[C@@H](CN(C)CC2CCCCC2)[C@@H](C)CN([C@H](C)CO)C3=O)n(C)n1
Second: C[C@H](CO)N1C[C@H](C)[C@@H](CN(C)C(=O)Nc2ccc(C(F)(F)F)cc2)Oc2c(NC(=O)C3CCOCC3)cccc2C1=O
The AC40 of the first is 12-fold lower: 2.41 µM for the first, 29.8 µM for the second.

CN1c2ccc(-c3ccc(F)cc3)cc2[C@H]2[C@H](CCN2S(=O)(=O)c2cccc(F)c2)[C@H]1CO and CC1CC(C)CN(S(=O)(=O)c2ccc(NC(=O)c3ccc(=O)[nH]c3)cc2)C1 (stereo unspecified) are within 1.5-fold of each other in AC40: 8.83 µM for the first, 12 µM for the second.

With CCN(CC)S(=O)(=O)c1ccc(NS(=O)(=O)c2ccc(C)c(C)c2)cc1 the AC40 was 11.3 µM.
